Assay results reported in patent publication US20230372302A1 (priority 2019, published 2023).
“Also recorded” adds a separate entry of the source. Structures can show the parent of a compound that is named as a salt.

Columns and labels:
[1] = human, in vivo; cited from earlier work
[2] = system: vocal cords and respiratory muscles of rats; conditions: rat, in vivo
rat = conditions: in vivo; cited from earlier work
[3] = biological target: vesicular monoamine transporter-VMAT (Homo sapiens, UniProt Q05940); experiment: cell-based
vesicular monoamine transporter-VMAT, sequence (Q05940 whole entry): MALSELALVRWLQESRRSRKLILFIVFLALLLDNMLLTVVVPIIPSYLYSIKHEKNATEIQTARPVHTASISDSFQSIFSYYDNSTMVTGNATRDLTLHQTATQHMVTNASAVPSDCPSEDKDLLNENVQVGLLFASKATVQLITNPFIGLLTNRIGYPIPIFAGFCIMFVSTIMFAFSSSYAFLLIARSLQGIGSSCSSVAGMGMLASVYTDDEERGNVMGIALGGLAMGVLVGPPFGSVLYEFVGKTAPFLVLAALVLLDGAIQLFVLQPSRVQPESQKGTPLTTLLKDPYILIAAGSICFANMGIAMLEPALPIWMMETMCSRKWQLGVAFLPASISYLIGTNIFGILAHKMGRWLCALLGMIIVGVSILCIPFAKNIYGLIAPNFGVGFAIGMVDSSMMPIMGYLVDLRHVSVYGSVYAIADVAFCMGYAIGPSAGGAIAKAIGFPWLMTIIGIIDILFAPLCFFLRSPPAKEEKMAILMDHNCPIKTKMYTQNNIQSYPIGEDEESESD

[4] = biological target: T1, recombinant human VMAT2 transporters (Homo sapiens, UniProt Q05940); assay type: binding
T1 construct: expressed in transfected cells; host or cells: HEK-293
T1 sequence (Q05940 whole entry): as above

[5] = system: T2, alpha 1 adrenergic receptor subtypes (1A, 1B, 1D); assay type: binding, human
T2 construct: rows headed: BA at all subtypes; other: subnanomolar range; Ki at alpha 1 adrenergic receptor subtypes; other: result in words

[6] = system: alpha 1 subtypes (1A, 1B, 1D); assay type: cell-based, human
[7] = biological target: T3, recombinant human alpha 1D adrenergic receptor (ADR1D) (Homo sapiens, UniProt P25100)
T3 sequence (P25100 1-572): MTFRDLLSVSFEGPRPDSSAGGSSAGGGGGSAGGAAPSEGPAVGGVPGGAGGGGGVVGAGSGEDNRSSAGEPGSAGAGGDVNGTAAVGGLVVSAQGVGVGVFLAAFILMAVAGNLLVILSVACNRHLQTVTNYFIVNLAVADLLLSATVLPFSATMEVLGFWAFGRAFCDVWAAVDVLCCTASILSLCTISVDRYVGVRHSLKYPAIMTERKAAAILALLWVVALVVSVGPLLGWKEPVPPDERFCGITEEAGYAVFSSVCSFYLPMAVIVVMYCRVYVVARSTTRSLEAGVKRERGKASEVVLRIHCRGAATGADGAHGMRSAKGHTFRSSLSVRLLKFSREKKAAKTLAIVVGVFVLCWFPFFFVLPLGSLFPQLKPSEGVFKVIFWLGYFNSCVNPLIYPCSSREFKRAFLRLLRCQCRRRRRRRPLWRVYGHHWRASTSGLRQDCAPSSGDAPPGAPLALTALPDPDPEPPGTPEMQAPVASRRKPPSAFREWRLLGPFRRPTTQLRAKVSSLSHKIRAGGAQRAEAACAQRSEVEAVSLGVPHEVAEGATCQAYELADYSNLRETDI

[8] = biological target: recombinant human alpha 1A adrenergic receptor (ADR1A) (Homo sapiens, UniProt P35348); assay type: binding
[9] = biological target: T4, recombinant human alpha 1B adrenergic receptor (ADR1B) (Homo sapiens, UniProt P35368)
T4 sequence (P35368 whole entry): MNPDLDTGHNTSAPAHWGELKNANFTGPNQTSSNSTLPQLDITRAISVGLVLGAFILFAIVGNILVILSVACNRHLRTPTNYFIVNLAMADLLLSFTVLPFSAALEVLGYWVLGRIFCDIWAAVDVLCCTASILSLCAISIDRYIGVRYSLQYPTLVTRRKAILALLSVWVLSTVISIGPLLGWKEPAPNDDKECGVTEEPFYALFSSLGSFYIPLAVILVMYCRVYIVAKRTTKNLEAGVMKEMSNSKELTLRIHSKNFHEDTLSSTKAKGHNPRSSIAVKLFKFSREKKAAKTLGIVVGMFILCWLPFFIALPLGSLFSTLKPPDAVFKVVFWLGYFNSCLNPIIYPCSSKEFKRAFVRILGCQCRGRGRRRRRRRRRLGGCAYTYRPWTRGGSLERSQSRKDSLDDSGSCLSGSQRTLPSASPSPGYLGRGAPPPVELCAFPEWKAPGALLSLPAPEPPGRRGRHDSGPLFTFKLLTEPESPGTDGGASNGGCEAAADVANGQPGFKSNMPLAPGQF

[10] = system: VC and laryngeal muscles/laryngospasm; conditions: rat, in vivo; cited from earlier work
neuromuscular blockade = conditions: human, in vivo; cited from earlier work
[11] = biological target: T4, recombinant human alpha 1B adrenergic receptor (ADR1B); experiment: biochemical
[12] = biological target: T5, α-1 adrenergic receptor 1A subtype (Homo sapiens, UniProt P35348); conditions: cited from earlier work
T5 sequence (P35348 1-466): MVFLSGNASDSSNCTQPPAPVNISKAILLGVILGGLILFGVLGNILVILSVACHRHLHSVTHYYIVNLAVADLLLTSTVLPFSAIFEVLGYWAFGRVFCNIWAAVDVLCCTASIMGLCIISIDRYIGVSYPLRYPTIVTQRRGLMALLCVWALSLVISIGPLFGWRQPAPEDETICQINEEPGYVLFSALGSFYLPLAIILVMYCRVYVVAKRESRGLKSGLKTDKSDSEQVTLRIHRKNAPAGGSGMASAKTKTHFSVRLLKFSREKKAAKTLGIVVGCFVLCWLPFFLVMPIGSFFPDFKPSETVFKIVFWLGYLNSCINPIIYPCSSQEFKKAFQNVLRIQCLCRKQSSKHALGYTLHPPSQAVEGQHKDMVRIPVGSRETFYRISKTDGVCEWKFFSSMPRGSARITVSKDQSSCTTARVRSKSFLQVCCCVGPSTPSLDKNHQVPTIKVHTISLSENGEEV

[13] = biological target: T3, recombinant human alpha 1D adrenergic receptor (ADR1D); experiment: biochemical

Question: For `C[C@H](Cc1cc2c(c(C(N)=O)c1)N(CCCO)CC2)NCCOc1ccccc1OCC(F)(F)F` [SILODOSIN, (3-Hydroxypropyl)-5-[(2R)-2-({2-[2-(2,2,2trifluoroethoxy)phenoxy]ethyl}amino)propyl]-2,3-d hydro-1H-indole-7-carboxamide], which “dizziness and orthostatic hypotension” value [1] is on record?
Answer: 3%

Question: And the subjects with syncope [1]?
Answer: 1/897

Question: With `COC(=O)[C@H]1[C@@H](OC(=O)c2ccccc2)C[C@@H]2CC[C@H]1N2C` [cocaine] as the compound, how does the “vocal cord closure and chest wall rigidity effect (specific to F/FA)” value [2] read?
Answer: not demonstrated

Question: And the LD85 (rat)?
Answer: 70 mg/kg

Question: With `CC(=O)Oc1ccc2c3c1O[C@H]1[C@@H](OC(C)=O)C=C[C@H]4[C@@H](C2)N(C)CC[C@@]341` [heroin] as the compound, how does the “vocal cord closure and chest wall rigidity effect (specific to F/FA)” value [2] read?
Answer: not demonstrated

Question: Which “vocal cord closure and chest wall rigidity effect (specific to F/FA)” value [2] does the source give for `CN[C@@H](C)Cc1ccccc1` [methamphetamine] here?
Answer: not demonstrated

Question: What about the IC50 [3] of the same compound?
Answer: ~4000 nM

Question: What about the LD90 (rat) of the same compound?
Answer: 100 mg/kg

Question: And the “binding to VMAT2 transporter” value [4]?
Answer: bind to recombinant human VMAT2 transporters

Question: Which “binding at alpha 1 adrenergic receptor subtypes” value [5] does the source give for `CN1CC[C@]23c4c5ccc(O)c4O[C@H]2[C@@H](O)C=C[C@H]3[C@H]1C5` [morphine] here?
Answer: not morphine; also recorded: neither morphine (MSO4) or naloxone had any notable or relevant binding activity

Question: What about the “act as antagonists at all alpha 1 subtypes” value [6] of the same compound?
Answer: not morphine

Question: And the “binding at alpha 1D (bind all alpha 1 subtypes)” value [7]?
Answer: not morphine or naloxone bind

Question: And the “binding at alpha 1A (bind all alpha 1 subtypes)” value [8]?
Answer: not morphine or naloxone bind

Question: What about the “binding at alpha 1B (bind all alpha 1 subtypes)” value [9] of the same compound?
Answer: not morphine or naloxone bind

Question: For `C=CCN1CC[C@]23c4c5ccc(O)c4O[C@H]2C(=O)CC[C@@]3(O)[C@H]1C5.Cl` [naloxone, 17-Allyl-4,5α-epoxy-3,14-dihydroxymorphinan-6-one hydrochloride], which “binding at alpha 1 adrenergic receptor subtypes” value [5] is on record?
Answer: neither morphine (MSO4) or naloxone had any notable or relevant binding activity

Question: And the “impact on the effects of F on VC and laryngeal muscles/laryngospasm” value [10]?
Answer: minimal impact

Question: With `NC[C@H](O)c1ccc(O)c(O)c1` [norepinephrine] as the compound, how does the “binding at the 1D subtype over 1A and 1B receptor subtypes, respectively” value [7] read?
Answer: 9-20 fold

Question: Which results are given for `C=CC[N+]1([C@H]2C[C@H]3[C@@H]4CC[C@H]5C[C@H](O)[C@@H](N6CCOCC6)C[C@]5(C)[C@H]4CC[C@]3(C)[C@H]2OC(C)=O)CCCC1` [rocuronium bromide, 1-[17β-(acetyloxy)-3α-hydroxy-2β-(4-morpholinyl)-5α-androstan-16β-yl]-1-(2-propenyl)pyrrolidinium bromide]?
Answer: time to completed intubation in most patients (neuromuscular blockade): ≤ 2 min; time to excellent or good intubating conditions in most patients (neuromuscular blockade): less than 2 minutes; time to maximum blockade in most patients (neuromuscular blockade): less than 3 minutes; time to neuromuscular block sufficient for intubation (80% block or greater), median (range) (neuromuscular blockade): 1 (0.4-6) minute(s)

Question: Which “onset of effect given intramuscularly” value (neuromuscular blockade) does the source give for `C[N+](C)(C)CCOC(=O)CCC(=O)OCC[N+](C)(C)C` [succinylcholine] here?
Answer: 2 to 3 min

Question: And the “persistence of maximum blockade” value (neuromuscular blockade)?
Answer: about 2 minutes

Question: And the “recovery time after maximum blockade” value (neuromuscular blockade)?
Answer: 4 to 6 min

Question: And the “time until neuromuscular blockade develops” value (neuromuscular blockade)?
Answer: about 1 minute

Question: For `CCOc1ccccc1OCCN[C@H](C)Cc1ccc(OC)c(S(N)(=O)=O)c1` [tamsulosin, (−)-(R)-5-[2-[[2-(o-Ethoxyphenoxy)ethyl]amino]propyl]-2-methoxybenzenesulfon-amide, monohydrochloride], which Ki [11] is on record?
Answer: < 1 nM

Question: And the “binding affinity at the 1A subtype greater over other α-1 antagonists” value [12]?
Answer: 12-30 times

Question: And the Ki [13]?
Answer: < 1 nM
